Source: patent publication US20210068395A1, “METHODS OF APPLYING ONE OR MORE CERTAIN HETEROARYL-1,2,4-TRIAZOLE AND HETEROARYL-TETRAZOLE COMPOUNDS TO CONTROL DAMAGE ON PLANTS, PROPAGATION MATERIAL THEREOF, AND PLANT DERIVED PRODUCTS” (SYNGENTA CROP PROTECTION AG, priority 2018, published 2021)
Like-named read-outs stand apart in the source and are kept apart here.

Columns and labels:
Format in all cases: in vivo
[1] = test system: Diabrotica balteata (corn root worm); assay: Diabrotica balteata (corn root worm), sprayed maize sprouts; conditions: 96 h, read-out: control in at least one of the two categories (mortality or growth inhibition)
Protocol: Maize sprouts placed onto an agar layer in 24-well microtiter plates were treated with aqueous test solutions prepared from 10,000 ppm DMSO stock solutions by spraying. After drying, the plates were infested with L2 larvae (6 to 8 per well). The samples were assessed for mortality and growth inhibition in comparison to untreated samples 4 days after infestation.

[2] = test system: Plutella xylostella (Diamond Back Moth); assay: Plutella xylostella feeding/contact activity, 24-well artificial diet; conditions: 192 h, read-out: control in at least one of the two categories (mortality or growth inhibition)
Protocol: 24-well microtiter plates with artificial diet were treated with aqueous test solutions prepared from 10,000 ppm DMSO stock solutions by pipetting. After drying, Plutella eggs were pipetted through a plastic stencil onto a gel blotting paper and the plate was closed with it. The samples were assessed for mortality and growth inhibition in comparison to untreated samples 8 days after infestation.

[3] = test system: Spodoptera littoralis (Egyptian Cotton Leaf Worm); assay: Spodoptera littoralis feeding/contact activity; conditions: foliar, 72 h, read-out: control in at least one of the three categories (mortality or growth inhibition or anti-feeding)
Protocol: (§1) Cotton leaf discs were placed onto agar in 24-well microtiter plates and sprayed with aqueous test solutions prepared from 10,000 ppm DMSO stock solutions. After drying the leaf discs were infested with five L1 larvae. The samples were assessed for mortality, anti-feeding and growth inhibition 3 days after infestation.

[4] = test system: Euschistus heros (Neotropical Brown Stink Bug); assay: Euschistus heros feeding/contact activity; conditions: 120 h, read-out: control in at least one of the two categories (mortality or growth inhibition)
Protocol: Soybean leaves on agar in 24-well microtiter plates were sprayed with aqueous test solutions prepared from 10,000 ppm DMSO stock solutions. After drying the leaves were infested with N2 nymphs. The samples were assessed for mortality and growth inhibition 5 days after infestation.

[5] = test system: Myzus persicae (Green Peach Aphid); assay: Myzus persicae systemic activity; conditions: 144 h, test rate 24 ppm, roots of pea seedlings in test solution, 6 days
Protocol: Roots of pea seedlings infested with an aphid population of mixed ages were placed directly into aqueous test solutions prepared from 10,000 DMSO stock solutions. The samples were assessed for mortality 6 days after placing seedlings into test solutions.

[6] = test system: Myzus persicae (Green Peach Aphid); assay: Myzus persicae feeding activity (sucrose solution, Parafilm); conditions: 120 h, test rate 12.5 ppm, in sucrose solution, 5 days after infestation
Protocol: Test compounds prepared from 10,000 ppm DMSO stock solutions were applied by pipette into 24-well microtiter plates and mixed with sucrose solution. The plates were closed with a stretched Parafilm. A plastic stencil with 24 holes was placed onto the plate and infested pea seedlings were placed directly on the Parafilm. The infested plate was closed with a gel blotting paper and another plastic stencil and then turned upside down. The samples were assessed for mortality 5 days after infestation.

[7] = test system: Plutella xylostella (Diamond Back Moth); assay: Plutella xylostella feeding/contact activity, 96-well artificial diet; conditions: 216 h, application rate 500 ppm, 9 days after infestation
Protocol: 1, 2, 3, 4, 17, 19, 23, 26, 39, 41, 42, 54, 55, 56 Plutella xylostella (Diamond Back Moth):Feeding/Contact Activity 96-well microtiter plates containing artificial diet were treated with aqueous test solutions, prepared from 10,000 ppm DMSO stock solutions, by a liquid handling robot. After drying, eggs (˜30 per well) were infested onto a netted lid which was suspended above the diet. The eggs hatch and L1 larvae move down to the diet. The samples were assessed for mortality 9 days after infestation.

[8] = test system: Thrips tabaci (Onion thrips); assay: Thrips tabaci feeding/contact activity; conditions: foliar, 144 h, read-out: control in at least one of the two categories (mortality or anti-feeding)
Protocol: as §1, with “Sunflower” for “Cotton”, “on” for “onto”, “a thrips population of mixed ages.” for “five L1 larvae.”, “mortality, and” for “mortality,”, “6” for “and growth inhibition 3”

[9] = test system: Myzus persicae (Green Peach Aphid); assay: Myzus persicae feeding/contact activity; conditions: foliar, 144 h, application rate 200 ppm, sunflower leaf discs sprayed, 6 days after infestation
Protocol: Sunflower leaf discs were placed onto agar in a 24-well microtiter plate and sprayed with aqueous test solutions prepared from 10,000 ppm DMSO stock solutions. After drying, the leaf discs were infested with an aphid population of mixed ages. The samples were assessed for mortality 6 days after infestation.

[10] = test system: Spodoptera littoralis (Egyptian Cotton Leaf Worm); assay: Spodoptera littoralis systemic activity (lettuce); conditions: 144 h, test rate 12.5 ppm, root uptake in lettuce, 6 days after infestation, read-out: control in at least one of the three categories (mortality or growth inhibition or anti-feeding)
Source text: Test compounds were applied by pipette prepared from 10,000 ppm DMSO stock solutions into 24-well plates and mixed with agar. Lettuce seeds were placed onto the agar and the multi well plate was closed by another plate which contained also agar. After 7 days the compound was absorbed by the roots and the lettuce grew into the lid plate. The lettuce leaves were then cut off into the lid plate. Spodoptera eggs were pipetted through a plastic stencil onto a humid gel blotting paper and the lid plate was closed with it. The samples were assessed for mortality, anti-feeding and growth inhibition 6 days after infestation.

[11] = application rate 200 ppm, L2 larvae, 4 days after infestation
[12] = application rate 200 ppm, 24-well artificial diet, 8 days after infestation
[13] = application rate 200 ppm, L1 larvae on cotton leaf discs, 3 days after infestation
[14] = application rate 200 ppm, N2 nymphs on soybean leaves, 5 days after infestation
[15] = application rate 200 ppm, sunflower leaf discs, 6 days after infestation

C[C@@H](c1ncnn1-c1ncccn1)N(C)C(=O)c1cc(C(F)(F)F)cc(C(F)(F)F)c1 [Compound 6]
≥ 80%: percent control (mortality or growth inhibition) at 200 ppm [1, 11] | percent control (mortality or growth inhibition) at 200 ppm [2, 12] | percent control (mortality, anti-feedant effect or growth inhibition) at 200 ppm [3, 13]

CC(c1ncnn1-c1ncccn1)N(CC1CC1)C(=O)c1cc(C#N)cc(C(F)(F)F)c1 (stereo not shown) [Compound 42]
≥ 80%: percent control (mortality or growth inhibition) at 200 ppm [1, 11] | percent control (mortality or growth inhibition) at 200 ppm [4, 14] | mortality at 24 ppm [5] | mortality at 12.5 ppm [6] | mortality at 500 ppm [7] | percent control (mortality or growth inhibition) at 200 ppm [2, 12] | percent control (mortality, anti-feedant effect or growth inhibition) at 200 ppm [3, 13] | percent control (mortality, anti-feedant effect or growth inhibition) at 200 ppm [8, 15]

CC(c1ncnn1-c1ncccn1)N(CC1CC1)C(=O)c1cc(C(F)(F)F)nc(C(F)(F)F)c1 (stereo not shown) [Compound 41]
≥ 80%: percent control (mortality or growth inhibition) at 200 ppm [1, 11] | percent control (mortality or growth inhibition) at 200 ppm [4, 14] | mortality at 12.5 ppm [6] | mortality at 500 ppm [7] | percent control (mortality or growth inhibition) at 200 ppm [2, 12] | percent control (mortality, anti-feedant effect or growth inhibition) at 200 ppm [3, 13] | percent control (mortality, anti-feedant effect or growth inhibition) at 200 ppm [8, 15]

CC(c1ncnn1-c1ncccn1)N(CCF)C(=O)c1cc(C(F)(F)F)cc(C(F)(F)F)c1 (stereo not shown) [Compound 56]
≥ 80%: percent control (mortality or growth inhibition) at 200 ppm [1, 11] | percent control (mortality or growth inhibition) at 200 ppm [4, 14] | mortality at 200 ppm [9] | mortality at 24 ppm [5] | mortality at 12.5 ppm [6] | mortality at 500 ppm [7] | percent control (mortality or growth inhibition) at 200 ppm [2, 12] | percent control (mortality, anti-feedant effect or growth inhibition) at 200 ppm [3, 13] | percent control (mortality, anti-feedant effect or growth inhibition) at 12.5 ppm [10]

CC(c1ncnn1-c1ncccn1)N(CC1CC1)C(=O)c1cccc(C#N)c1 (stereo not shown) [Compound 25]
≥ 80%: percent control (mortality or growth inhibition) at 200 ppm [1, 11]

CC(c1ncnn1-c1ncccn1)N(CC1CC1)C(=O)c1cc(Cl)cc(C(F)(F)F)c1 (stereo not shown) [Compound 23]
≥ 80%: percent control (mortality or growth inhibition) at 200 ppm [1, 11] | mortality at 12.5 ppm [6] | mortality at 500 ppm [7] | percent control (mortality or growth inhibition) at 200 ppm [2, 12] | percent control (mortality, anti-feedant effect or growth inhibition) at 200 ppm [3, 13] | percent control (mortality, anti-feedant effect or growth inhibition) at 12.5 ppm [10]

CC(c1ncnn1-c1ncccn1)N(CC1CC1)C(=O)c1cc(Br)cc(C(F)(F)F)c1 (stereo not shown) [Compound 19]
≥ 80%: percent control (mortality or growth inhibition) at 200 ppm [1, 11] | percent control (mortality or growth inhibition) at 200 ppm [4, 14] | mortality at 12.5 ppm [6] | mortality at 500 ppm [7] | percent control (mortality or growth inhibition) at 200 ppm [2, 12] | percent control (mortality, anti-feedant effect or growth inhibition) at 200 ppm [3, 13]

CCOC(OCC)c1nc(C(C)NC(=O)c2cc(C(F)(F)F)cc(C(F)(F)F)c2)n(-c2ncccn2)n1 (stereo not shown) [Compound 8]
≥ 80%: percent control (mortality or growth inhibition) at 200 ppm [1, 11] | mortality at 500 ppm [7] | percent control (mortality or growth inhibition) at 200 ppm [2, 12]

CC(c1ncnn1-c1ncccn1)N(C[Si](C)(C)C)C(=O)c1cc(C(F)(F)F)cc(C(F)(F)F)c1 (stereo not shown) [Compound 16]
≥ 80%: percent control (mortality or growth inhibition) at 200 ppm [1] | percent control (mortality or growth inhibition) at 200 ppm ([4]; in Glycine max) | percent control (mortality or growth inhibition) at 200 ppm [2] | percent control (mortality, anti-feedant effect or growth inhibition) at 200 ppm [3] | percent control (mortality, anti-feedant effect or growth inhibition) at 200 ppm [8]

COC(=O)c1nc(C(C)NC(=O)c2cc(C(F)(F)F)cc(C(F)(F)F)c2)n(-c2ncccn2)n1 (stereo not shown) [Compound 7]
≥ 80%: percent control (mortality or growth inhibition) at 200 ppm [1, 11] | mortality at 500 ppm [7] | percent control (mortality or growth inhibition) at 200 ppm [2, 12] | percent control (mortality, anti-feedant effect or growth inhibition) at 200 ppm [3, 13] | percent control (mortality, anti-feedant effect or growth inhibition) at 200 ppm [8, 15]

COc1cnc(-n2ncnc2C(C)N(CC2CC2)C(=O)c2cc(C(F)(F)F)cc(C(F)(F)F)c2)nc1 (stereo not shown) [Compound 24]
≥ 80%: percent control (mortality or growth inhibition) at 200 ppm [1, 11] | percent control (mortality or growth inhibition) at 200 ppm [2, 12]

CC(c1ncnn1-c1ncccn1)N(CC1CC1)C(=O)c1cncc(C(F)(F)F)c1 (stereo not shown) [Compound 47]
≥ 80%: percent control (mortality or growth inhibition) at 200 ppm [1, 11] | percent control (mortality or growth inhibition) at 200 ppm [4, 14] | mortality at 500 ppm [7]

CC(c1ncnn1-c1ncccn1)N(CCC(F)(F)F)C(=O)c1cc(C(F)(F)F)cc(C(F)(F)F)c1 (stereo not shown) [Compound 55]
≥ 80%: percent control (mortality or growth inhibition) at 200 ppm [1, 11] | percent control (mortality or growth inhibition) at 200 ppm [4, 14] | mortality at 200 ppm [9] | mortality at 12.5 ppm [6] | mortality at 500 ppm [7] | percent control (mortality or growth inhibition) at 200 ppm [2, 12] | percent control (mortality, anti-feedant effect or growth inhibition) at 200 ppm [3, 13] | percent control (mortality, anti-feedant effect or growth inhibition) at 12.5 ppm [10] | percent control (mortality, anti-feedant effect or growth inhibition) at 200 ppm [8, 15]

CC(c1ncnn1-c1ccccn1)N(CC1COC1)C(=O)c1cc(C(F)(F)F)cc(C(F)(F)F)c1 (stereo not shown) [Compound 62]
≥ 80%: percent control (mortality or growth inhibition) at 200 ppm [1, 11]

CC(c1ncnn1-c1ncccn1)N(CCCF)C(=O)c1cc(C(F)(F)F)cc(C(F)(F)F)c1 (stereo not shown) [Compound 54]
≥ 80%: percent control (mortality or growth inhibition) at 200 ppm [1, 11] | mortality at 200 ppm [9] | mortality at 12.5 ppm [6] | percent control (mortality or growth inhibition) at 200 ppm [2, 12] | percent control (mortality, anti-feedant effect or growth inhibition) at 200 ppm [3, 13]
